Assay results: patent publication US20260232666A1, “COMPOSITIONS AND METHODS FOR INHIBITION OF RAS” (TheRas, Inc., priority 2023, published 2026)

Assays:
[1] = molecular target: T1, GTP-loaded KRAS4b (amino acids 1-169) G12C/C118S protein (Homo sapiens, UniProt P01116, C118S/G12C); test: Covalent cysteine 12 modification by MALDI-TOF MS, GTP-loaded KRAS G12C; type: binding; details: 15 minutes reaction time point
T1 construct: KRAS4b (amino acids 1-169) G12C/C118S protein; made in house
Outline: (§1)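 1 μM GppNHp-, GTP- or GDP-loaded KRAS4b (1-169) G12C/C118S in 20 mM HEPES, 150 mM NaCl, 1 mM MgCl2, pH 7.3, at 1:2.5 protein:compound, room temperature in the dark. Percent Cys12 modification from MALDI-TOF peak heights (adduct/total protein), reported at 15 min.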

[2] = molecular target: T2, GDP-loaded KRAS4b (amino acids 1-169) G12C/C118S protein (Homo sapiens, UniProt P01116, C118S/G12C); test: Covalent cysteine 12 modification by MALDI-TOF MS, GDP-loaded KRAS G12C; type: binding; details: 15 minutes reaction time point
T2 construct: KRAS4b (amino acids 1-169) G12C/C118S protein; made in house
Outline: as §1

[3] = molecular target: T3, Avi-KRAS G12C (1-169) GppNHp/RAF1 RBD-3×FLAG (52-151) (Homo sapiens, UniProt P01116, G12C); test: Raf1 RBD-KRAS G12C-GppNHp disruption assay (protein:protein interaction HTRF); type: biochemical
T3 construct: Avi-KRAS G12C (1-169) GppNHp; Avi (N)
Outline: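 HTRF measuring RAF1 RBD binding to GppNHp-loaded KRAS G12C (50 nM) in Tris pH 7.5, 100 mM NaCl, 5 mM MgCl2, 10% DMSO. Compound, KRAS, RBD and detection reagents each added sequentially with 1 h room-temperature incubations; 10-point titration; excitation 320 nm, emission 615 nm; activity as % of DMSO; IC50 derived.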

| GTP-KRAS G12C percent of modification [1] | GDP-KRAS G12C percent of modification [2] | IC50 [3] | SMILES |
| --- | --- | --- | --- |
| A (percent of modification ≥70%) | A (percent of modification ≥70%) | < 0.5 µM | C=CC(=O)N1CC[C@@H](N(CC)c2nc(OC[C@@]34CCCN3C[C@H](OC)C4)nc3c(F)c(-c4ccc(F)c5sc(N)c(C#N)c45)c(C(F)(F)F)cc23)[C@H]1C [Compound 150] |
| A (percent of modification ≥70%) | A (percent of modification ≥70%) | < 0.5 µM | C=CC(=O)N1CC[C@@H](N(CC)c2nc(OC[C@@H]3CCCN3C)nc3c(F)c(-c4ccc(F)c5sc(N)c(C#N)c45)ccc23)[C@H]1C [Compound 141] |
| C (10%≤percent of modification <50%) | C (10%≤percent of modification <50%) | < 0.5 µM | C=CC(=O)N1CC[C@@H](N(CC)c2nc(OC[C@@H]3CCCN3C)nc3c(F)c(-c4nc(N)cc(C)c4C(F)(F)F)c(C(F)(F)F)cc23)[C@H]1C [Compound 155] |
| B (50≤percent of modification <70%) | A (percent of modification ≥70%) | < 0.5 µM | C=CC(=O)N1CCC(N(CC)c2nc(OC[C@@]34CCCN3C[C@H](F)C4)nc3cc(-c4ccc(F)c5sc(N)c(C#N)c45)c(C#N)cc23)[C@H]1CC (stereo partly drawn) [Compound 14] |
| D (percent of modification <10%) | D (percent of modification <10%) | 5 to 20 µM | C=CC(=O)N1C[C@H](C)N(c2nc(OC[C@@]34CCCN3C[C@H](F)C4)nc3c(F)c(-c4ccc(F)c5sc(N)c(C#N)c45)c(Cl)cc23)C[C@H]1C (atropisomer, axis not shown) [Compound 103] |
| D (percent of modification <10%) | D (percent of modification <10%) | 5 to 20 µM | C=CC(=O)N1CC[C@@H](N(CC)c2nc(OC[C@@H]3CC4(CC4)CN3C)nc3c(F)c(-c4ccc(F)c5sc(N)c(C#N)c45)c(Cl)cc23)[C@H]1C (atropisomer, axis not shown) [Compound 121] |
| A (percent of modification ≥70%) | A (percent of modification ≥70%) | < 0.5 µM | C=CC(=O)N1CC[C@@H](N(CC)c2nc(OC[C@@]34CCCN3C[C@H](OC)C4)nc3cc(-c4ccc(F)c5sc(N)c(C#N)c45)c(F)cc23)[C@H]1C [Compound 149] |
| A (percent of modification ≥70%) | A (percent of modification ≥70%) | < 0.5 µM | C=CC(=O)N1C[C@H](N(C)c2nc(OC[C@@H]3CCCN3C)nc3c(F)c(-c4ccc(F)c5sc(N)c(C#N)c45)c(C(F)(F)F)cc23)C[C@@H]1C [Compound 153] |
| A (percent of modification ≥70%) | A (percent of modification ≥70%) | < 0.5 µM | C=CC(=O)N1C[C@H](N(C)c2nc(OC[C@@]34CCCN3C[C@H](F)C4)nc3cc(-c4ccc(F)c5sc(N)c(C#N)c45)c(F)cc23)C[C@H]1C [Compound 148] |
| B (50≤percent of modification <70%) | B (50≤percent of modification <70%) | < 0.5 µM | C=CC(=O)N1CC[C@@H](N(C)c2nc(OC[C@@H]3C[C@@H](OC)CN3C)nc3c(F)c(-c4ccc(F)c5sc(N)c(C#N)c45)c(C(F)(F)F)cc23)[C@@H]1C [Compound 33] |
| A (percent of modification ≥70%) | A (percent of modification ≥70%) | < 0.5 µM | C=CC(=O)N1CC[C@@H](N(C)c2nc(OC[C@@]34CCCN3C[C@H](F)C4)nc3c(F)c(-c4nc(N)cc(C)c4C(F)(F)F)ccc23)[C@H]1C [Compound 115] |
| D (percent of modification <10%) | D (percent of modification <10%) | 5 to 20 µM | C=CC(=O)N1CC[C@@H](N(CC)c2nc(OC[C@@H]3C[C@@H](F)CN3C)nc3c(F)c(-c4ccc(F)c5sc(N)c(C#N)c45)c(C(F)(F)F)cc23)[C@H]1C (atropisomer, axis not shown) [Compound 114] |
| A (percent of modification ≥70%) | A (percent of modification ≥70%) | < 0.5 µM | C=CC(=O)N1CC[C@@H](N(CC)c2nc(OC[C@@H]3C[C@@H](OC)CN3C)nc3cc(-c4ccc(F)c5sc(N)c(C#N)c45)c(F)cc23)[C@H]1C [Compound 140] |

Continued, compound first:

| SMILES | GTP-KRAS G12C percent of modification [1] | GDP-KRAS G12C percent of modification [2] | IC50 [3] |
| --- | --- | --- | --- |
| C=CC(=O)N1CC[C@@H](N(C)c2nc(OC[C@@H]3CC4(CC4)CN3C)nc3c(F)c(-c4ccc(F)c5sc(N)c(C#N)c45)c(C(F)(F)F)cc23)[C@@H]1C [Compound 112] | D (percent of modification <10%) | D (percent of modification <10%) | 0.5 to 5 µM |
| C=CC(=O)N1CCC(N(CC)c2nc(OC[C@@]34CCCN3C[C@H](F)C4)nc3c(F)c(-c4ccc(F)c5sc(N)c(C#N)c45)c(Cl)cc23)[C@H]1CC (stereo partly drawn) [Compound 12] | C (10%≤percent of modification <50%) | C (10%≤percent of modification <50%) | < 0.5 µM |
| C=CC(=O)N1CC[C@@H](N(C)c2nc(OC[C@@H]3CCCN3C)nc3c(F)c(-c4ccc(F)c5sc(N)c(C#N)c45)c(Cl)cc23)[C@H]1C (atropisomer, axis not shown) [Compound 119] | D (percent of modification <10%) | D (percent of modification <10%) | 5 to 20 µM |
| C=CC(=O)N1CC[C@@H](N(CC)c2nc(OC[C@@H]3C[C@@H](F)CN3C)nc3c(F)c(-c4ccc(F)c5sc(N)c(C#N)c45)c(C(F)(F)F)cc23)[C@H]1C (atropisomer, axis not shown) [Compound 113] | A (percent of modification ≥70%) | A (percent of modification ≥70%) | < 0.5 µM |
| C=CC(=O)N1CC[C@@H](N(C)c2nc(OC[C@@H]3C[C@@H](F)CN3CC)nc3c(F)c(-c4ccc(F)c5sc(N)c(C#N)c45)c(C(F)(F)F)cc23)[C@H]1C [Compound 107] | A (percent of modification ≥70%) | A (percent of modification ≥70%) | < 0.5 µM |
| C=CC(=O)N1C[C@H](N(C)c2nc(OC[C@@]34CCCN3C[C@H](F)C4)nc3c(F)c(-c4ccc(F)c5sc(N)c(C#N)c45)c(C(F)(F)F)cc23)C[C@@H]1C [Compound 108] | B (50≤percent of modification <70%) | B (50≤percent of modification <70%) | < 0.5 µM |
| C=CC(=O)N1CCC(N(C)c2nc(OC[C@@]34CCCN3C[C@H](F)C4)nc3c(F)c(-c4nc(N)cc(C)c4C(F)(F)F)c(Cl)cc23)[C@H]1C (stereo partly drawn) [Compound 10] | B (50≤percent of modification <70%) | A (percent of modification ≥70%) | < 0.5 µM |
| C=CC(=O)N1CC[C@@H](N(C)c2nc(OC[C@@H]3CCCN3C)nc3c(F)c(-c4ccc(F)c5sc(N)c(C#N)c45)c(Cl)cc23)[C@H]1C (atropisomer, axis not shown) [Compound 118] | A (percent of modification ≥70%) | A (percent of modification ≥70%) | < 0.5 µM |
| C=CC(=O)N1CC[C@H](N(CC)c2nc(OC[C@@]34CCCN3C[C@H](F)C4)nc3c(F)c(-c4ccc(F)c5sc(N)c(C#N)c45)c(C(F)(F)F)cc23)C1 (atropisomer, axis not shown) [Compound 171] | B (50≤percent of modification <70%) | C (10%≤percent of modification <50%) | < 0.5 µM |
| C=CC(=O)N1CC[C@@H](N(C)c2nc(OC[C@@H]3C[C@@H](OC)CN3CC)nc3c(F)c(-c4ccc(F)c5sc(N)c(C#N)c45)c(C(F)(F)F)cc23)[C@@H]1C [Compound 101] | B (50≤percent of modification <70%) | A (percent of modification ≥70%) | < 0.5 µM |
| C=CC(=O)N1CC[C@@H](N(C)c2nc(OC[C@@H]3C[C@@H](F)CN3C)nc3c(F)c(-c4nc(N)cc(C)c4C(F)(F)F)c(C(F)(F)F)cc23)[C@H]1C [Compound 145] | C (10%≤percent of modification <50%) | A (percent of modification ≥70%) | < 0.5 µM |
| C=CC(=O)N1CCC(N(CC)c2nc(OC[C@@]34CCCN3C[C@H](F)C4)nc3c(F)c(-c4ccc(F)c5sc(N)c(C#N)c45)ccc23)[C@H]1CC (stereo partly drawn) [Compound 11] | A (percent of modification ≥70%) | A (percent of modification ≥70%) | < 0.5 µM |
| C=CC(=O)N1CC[C@@H](N(C)c2nc(OC[C@@]34CCCN3C[C@H](F)C4)nc3cc(-c4nc(N)cc(C)c4C(F)(F)F)c(F)cc23)[C@H]1C [Compound 110] | B (50≤percent of modification <70%) | A (percent of modification ≥70%) | < 0.5 µM |
